Where two headings read alike, the source gives them in different places.
What was measured:
TLR1/TLR2 [1] = molecular target: TLR1/TLR2 (Mus musculus, UniProt Q9EPQ1+Q9QUN7); test: TNF-α release from thioglycolate-elicited mouse peritoneal macrophages (ELISA); conditions: for Emax: 4 h, read-out: Efficacy (magnitude) of response versus diprovocim-1 (100%), mouse macrophages; for EC50: read-out: EC50 (nM) (mouse): EC50 TNF-α release from mouse macrophages
Description: Thioglycolate-elicited macrophages were recovered 4 days after i.p. injection of 2 mL BBL thioglycolate medium, brewer modified (4%; BD Biosciences) by peritoneal lavage with 5 mL phosphate buffered saline (PBS). […] Cells were seeded onto 96-well plates at 1×10^3 cells per well and treated with systematically varied concentrations of the candidate compounds (dissolved in DMSO, and final assay DMSO concentrations (0.5%) were kept constant in all experiments) for 4 h. Ultra-pure LPS (dissolved in H2O, Enzo Life Sciences) was assessed alongside the compounds as a positive control and DMSO treated controls. […] Mouse TNF-α in the supernatants was measured by ELISA kits according to the manufacturer's instructions (eBioscience). EC50's were calculated by Graphpad Prism. All data is mean of duplicates and SD is within ±10% of mean. Mouse cells were from wild type C57BL/6J mice.

TLR1/TLR2 [2] = molecular target: TLR1/TLR2 (Homo sapiens, UniProt O60603+Q15399); test: TNF-α release from PMA-differentiated human THP-1 cells (ELISA); conditions: for Emax: THP-1, 4 h, read-out: Efficacy (magnitude) of response versus diprovocim-1 (100%), THP-1; for EC50: read-out: EC50 (nM) (THP-1): EC50 TNF-α release from human THP-1 cells;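 as to all read-outs here: cells exposed to graded compound concentrations for 4 h, TNF-α quantified in supernatant, LPS as positive and DMSO as negative control, values are duplicate means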
Sequence of TLR1/TLR2 (Homo sapiens, UniProt O60603+Q15399) (Q15399 25-786): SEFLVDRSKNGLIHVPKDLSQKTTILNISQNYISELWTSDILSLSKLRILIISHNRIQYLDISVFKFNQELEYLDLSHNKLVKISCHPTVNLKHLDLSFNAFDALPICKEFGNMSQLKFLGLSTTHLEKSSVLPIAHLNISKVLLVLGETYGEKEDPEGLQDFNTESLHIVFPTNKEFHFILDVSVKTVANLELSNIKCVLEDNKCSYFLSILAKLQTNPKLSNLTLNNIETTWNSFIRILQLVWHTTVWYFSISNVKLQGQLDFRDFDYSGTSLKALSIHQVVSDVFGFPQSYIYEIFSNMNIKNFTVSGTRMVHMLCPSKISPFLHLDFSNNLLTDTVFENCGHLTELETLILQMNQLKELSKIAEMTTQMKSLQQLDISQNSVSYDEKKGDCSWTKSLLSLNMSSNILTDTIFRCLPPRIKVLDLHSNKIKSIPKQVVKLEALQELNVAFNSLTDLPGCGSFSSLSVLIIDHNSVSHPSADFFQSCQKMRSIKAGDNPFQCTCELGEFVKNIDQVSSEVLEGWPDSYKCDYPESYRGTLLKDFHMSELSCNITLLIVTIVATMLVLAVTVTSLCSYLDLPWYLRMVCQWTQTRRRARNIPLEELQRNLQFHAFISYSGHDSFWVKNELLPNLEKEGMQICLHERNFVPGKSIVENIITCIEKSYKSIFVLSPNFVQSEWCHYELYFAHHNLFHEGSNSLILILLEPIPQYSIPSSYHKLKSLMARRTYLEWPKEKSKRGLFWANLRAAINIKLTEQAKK
Sequence of TLR1/TLR2 (Homo sapiens, UniProt O60603+Q15399) (O60603 21-784): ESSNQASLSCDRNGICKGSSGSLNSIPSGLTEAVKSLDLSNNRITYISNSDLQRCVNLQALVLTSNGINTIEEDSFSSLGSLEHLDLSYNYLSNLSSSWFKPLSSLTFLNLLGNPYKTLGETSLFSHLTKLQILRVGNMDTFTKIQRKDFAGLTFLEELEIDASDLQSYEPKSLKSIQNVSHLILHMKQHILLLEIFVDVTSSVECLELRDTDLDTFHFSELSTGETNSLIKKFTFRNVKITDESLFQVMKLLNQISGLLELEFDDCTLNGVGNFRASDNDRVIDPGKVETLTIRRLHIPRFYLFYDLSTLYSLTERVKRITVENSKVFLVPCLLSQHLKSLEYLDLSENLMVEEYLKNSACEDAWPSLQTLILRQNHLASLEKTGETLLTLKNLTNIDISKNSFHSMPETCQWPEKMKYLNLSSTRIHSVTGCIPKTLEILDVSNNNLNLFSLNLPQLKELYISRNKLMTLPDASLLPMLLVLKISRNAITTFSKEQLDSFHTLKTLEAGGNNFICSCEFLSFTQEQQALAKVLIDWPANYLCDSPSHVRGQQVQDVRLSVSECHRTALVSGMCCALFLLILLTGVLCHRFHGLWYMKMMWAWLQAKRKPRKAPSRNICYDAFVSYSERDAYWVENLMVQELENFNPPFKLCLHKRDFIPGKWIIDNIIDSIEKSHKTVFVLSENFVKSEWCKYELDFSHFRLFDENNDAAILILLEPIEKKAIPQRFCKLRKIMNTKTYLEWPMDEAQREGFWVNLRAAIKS
Description: THP-1 (American Type Culture Collection) cells, a human monocytic leukemia cell line, were differentiated by treatment with 100 nM PMA (Sigma) in Roswell Park Memorial Institute (RPMI) cell culture medium [RPMI containing 10% vol/vol FBS (Gemini Bio Products), 1% penicillin and streptomycin (Life Technologies)] for 24 h. After that, the cells were washed with PBS and cultured in fresh RPMI cell culture medium for 24 h before use in studies. PMA-differentiated THP-1 cells were seeded onto 96-well plates at 0.5×10^5 cells per well and treated with systematically varied concentrations of the candidate compounds (dissolved in DMSO, and the final assay DMSO concentration (0.1%) was kept constant in all experiments) for 4 h. Ultra-pure LPS (dissolved in H2O, Enzo Life Sciences) was assessed alongside the compounds as a positive control and DMSO treated control was used as a negative control. Human TNF-α in the supernatants was measured by ELISA (eBioscience). This assay was used for establishing dose-response curves and measured EC50's. EC50's were calculated by Graphpad Prism. All data is the mean of duplicates and SD is within +10% of mean.

Sequence of TLR1/TLR2 (Mus musculus, UniProt Q9EPQ1+Q9QUN7) (Q9EPQ1 26-795): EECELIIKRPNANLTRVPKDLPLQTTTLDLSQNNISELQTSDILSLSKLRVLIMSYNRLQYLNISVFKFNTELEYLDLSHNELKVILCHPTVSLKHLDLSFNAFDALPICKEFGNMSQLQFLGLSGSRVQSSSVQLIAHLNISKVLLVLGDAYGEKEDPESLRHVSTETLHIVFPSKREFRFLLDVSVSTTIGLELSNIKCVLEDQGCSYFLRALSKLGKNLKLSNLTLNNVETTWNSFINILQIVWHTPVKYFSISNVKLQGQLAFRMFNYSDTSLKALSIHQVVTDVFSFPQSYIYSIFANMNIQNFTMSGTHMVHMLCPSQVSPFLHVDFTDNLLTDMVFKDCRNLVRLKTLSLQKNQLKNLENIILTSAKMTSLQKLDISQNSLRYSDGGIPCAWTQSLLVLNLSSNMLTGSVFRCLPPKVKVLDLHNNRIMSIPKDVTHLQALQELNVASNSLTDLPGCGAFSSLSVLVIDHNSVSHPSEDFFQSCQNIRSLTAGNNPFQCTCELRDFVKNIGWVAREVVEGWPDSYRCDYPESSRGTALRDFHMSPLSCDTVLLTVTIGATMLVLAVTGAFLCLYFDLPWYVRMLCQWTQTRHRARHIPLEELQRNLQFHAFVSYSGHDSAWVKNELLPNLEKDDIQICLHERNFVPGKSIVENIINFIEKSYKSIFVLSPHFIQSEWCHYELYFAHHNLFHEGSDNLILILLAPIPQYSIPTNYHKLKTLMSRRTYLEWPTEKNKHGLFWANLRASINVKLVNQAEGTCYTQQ
Sequence of TLR1/TLR2 (Mus musculus, UniProt Q9EPQ1+Q9QUN7) (Q9QUN7 25-784): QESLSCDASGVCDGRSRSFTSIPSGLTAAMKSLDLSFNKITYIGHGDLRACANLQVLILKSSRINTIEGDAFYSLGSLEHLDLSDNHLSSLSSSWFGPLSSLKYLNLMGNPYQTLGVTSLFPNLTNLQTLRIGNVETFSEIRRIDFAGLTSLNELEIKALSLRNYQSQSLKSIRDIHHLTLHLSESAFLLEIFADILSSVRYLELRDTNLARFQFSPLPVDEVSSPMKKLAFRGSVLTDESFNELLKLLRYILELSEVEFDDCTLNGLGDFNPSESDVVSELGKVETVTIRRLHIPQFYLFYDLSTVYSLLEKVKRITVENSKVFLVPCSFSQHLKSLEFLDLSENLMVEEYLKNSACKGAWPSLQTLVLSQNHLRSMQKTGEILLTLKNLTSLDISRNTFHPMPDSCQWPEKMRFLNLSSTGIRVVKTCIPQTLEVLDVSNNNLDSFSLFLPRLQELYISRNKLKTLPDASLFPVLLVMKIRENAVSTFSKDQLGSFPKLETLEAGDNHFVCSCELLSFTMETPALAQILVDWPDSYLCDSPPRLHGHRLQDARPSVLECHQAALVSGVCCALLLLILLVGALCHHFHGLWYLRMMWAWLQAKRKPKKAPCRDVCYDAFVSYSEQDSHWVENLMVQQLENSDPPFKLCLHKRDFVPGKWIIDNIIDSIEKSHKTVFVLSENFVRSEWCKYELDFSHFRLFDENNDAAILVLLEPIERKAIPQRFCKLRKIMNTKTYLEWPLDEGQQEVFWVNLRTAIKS

SMILES	Emax (TLR1/TLR2 [1]) [%]	EC50 (TLR1/TLR2 [1]; Table 1) [nM]	Emax (TLR1/TLR2 [2]) [%]	EC50 (TLR1/TLR2 [2]; Table 1) [nM]	EC50 (TLR1/TLR2 [2]; Table 3) [nM]	EC50 (TLR1/TLR2 [1]; Table 3) [nM]	EC50 (TLR1/TLR2 [2]; Table 2) [nM]
COC(=O)CCCCCCCCCCCNC(=O)[C@@H]1CN(C(=O)c2ccc(C(=O)N3C[C@@H](C(=O)N[C@H]4C[C@@H]4c4ccccc4)[C@H](C(=O)N[C@H]4C[C@@H]4c4ccccc4)C3)cc2)C[C@H]1C(=O)N[C@H]1C[C@@H]1c1ccccc1 [Compound 3, Methyl 12-((3S,4S)-1-(4-((3S,4S)-3,4-bis(((1S,2R)-2-phenylcyclopropyl)carbamoyl)pyrrolidine-1-carbonyl)-benzoyl)-4-(((1S,2R)-2-phenylcyclopropyl)-carbamoyl)-pyrrolidine-3-carboxamido)-dodecanoate]	100	1.4	–	–	–	–	–
COC(=O)CCCCCCCCCNC(=O)[C@@H]1CN(C(=O)c2ccc(C(=O)N3C[C@@H](C(=O)N[C@H]4C[C@@H]4c4ccccc4)[C@H](C(=O)N[C@H]4C[C@@H]4c4ccccc4)C3)cc2)C[C@H]1C(=O)N[C@H]1C[C@@H]1c1ccccc1 [Compound 4, Methyl 10-((3S,4S)-1-(4-((3S,4S)-3,4-bis(((1S,2R)-2-phenylcyclopropyl)carbamoyl)pyrrolidine-1-carbonyl)-benzoyl)-4-(((1S,2R)-2-phenylcyclopropyl)-carbamoyl)-pyrrolidine-3-carboxamido)-decanoate]	–	–	100	–	–	–	–
COC(=O)CCCCCNC(=O)[C@@H]1CN(C(=O)c2ccc(C(=O)N3C[C@@H](C(=O)N[C@H]4C[C@@H]4c4ccccc4)[C@H](C(=O)N[C@H]4C[C@@H]4c4ccccc4)C3)cc2)C[C@H]1C(=O)N[C@H]1C[C@@H]1c1ccccc1 [Compound 6, Methyl 6-((3S,4S)-1-(4-((3S,4S)-3,4-bis(((1S,2R)-2-phenylcyclopropyl)carbamoyl)pyrrolidine-1-carbonyl)-benzoyl)-4-(((1S,2R)-2-phenylcyclopropyl)carbamoyl)-pyrrolidine-3-carboxamido)-hexanoate]	–	1100	–	45	–	–	–
O=C(NCCCCCCCCCCCCO)[C@@H]1CN(C(=O)c2ccc(C(=O)N3C[C@@H](C(=O)N[C@H]4C[C@@H]4c4ccccc4)[C@H](C(=O)N[C@H]4C[C@@H]4c4ccccc4)C3)cc2)C[C@H]1C(=O)N[C@H]1C[C@@H]1c1ccccc1 [Compound 7, (3S,4S)-1-(4-((3S,4S)-3,4-Bis(((1S,2R)-2-phenyl-cyclopropyl)carbamoyl)pyrrolidine-1-carbonyl)-benzoyl)-N^3-(12-hydroxydodecyl)-N^4-((1S,2R)-2-phenyl-cyclo-propyl)pyrrolidine-3,4-dicarboxamide]	110	–	90	–	0.21	1.2	–
O=C(NCCCCCCCCCCO)[C@@H]1CN(C(=O)c2ccc(C(=O)N3C[C@@H](C(=O)N[C@H]4C[C@@H]4c4ccccc4)[C@H](C(=O)N[C@H]4C[C@@H]4c4ccccc4)C3)cc2)C[C@H]1C(=O)N[C@H]1C[C@@H]1c1ccccc1 [Compound 8, (3S,4S)-1-(4-((3S,4S)-3,4-Bis(((1S,2R)-2-phenyl-cyclopropyl)carbamoyl)pyrrolidine-1-carbonyl)benzoyl)-N^3-(10-hydroxydecyl)-N^4-((1S,2R)-2-phenylcyclopropyl)-pyrrolidine-3,4-dicarboxamide]	110	–	90	–	–	–	–
O=C(NCCCCCCCCO)[C@@H]1CN(C(=O)c2ccc(C(=O)N3C[C@@H](C(=O)N[C@H]4C[C@@H]4c4ccccc4)[C@H](C(=O)N[C@H]4C[C@@H]4c4ccccc4)C3)cc2)C[C@H]1C(=O)N[C@H]1C[C@@H]1c1ccccc1 [Compound 9, (3S,4S)-1-(4-((3S,4S)-3,4-Bis(((1S,2R)-2-phenyl-cyclopropyl)carbamoyl)pyrrolidine-1-carbonyl)-benzoyl)-N^3—(8-hydroxyoctyl)-N^4-((1S,2R)-2-phenyl-cyclopropyl)pyrrolidine-3,4-dicarboxamide]	–	93	–	4.3	–	–	–
O=C(NCCCCCCO)[C@@H]1CN(C(=O)c2ccc(C(=O)N3C[C@@H](C(=O)N[C@H]4C[C@@H]4c4ccccc4)[C@H](C(=O)N[C@H]4C[C@@H]4c4ccccc4)C3)cc2)C[C@H]1C(=O)N[C@H]1C[C@@H]1c1ccccc1 [Compound 10, (3S,4S)-1-(4-((3S,4S)-3,4-Bis(((1S,2R)-2-phenyl-cyclo-propyl)carbamoyl)pyrrolidine-1-carbonyl)-benzoyl)-N^3-(6-hydroxyhexyl)-N^4-((1S,2R)-2-phenyl-cyclopropyl)-pyrrolidine-3,4-dicarboxamide]	–	180	–	90	–	–	–
O=C(O)CCCCCCCCCCCNC(=O)[C@@H]1CN(C(=O)c2ccc(C(=O)N3C[C@@H](C(=O)N[C@H]4C[C@@H]4c4ccccc4)[C@H](C(=O)N[C@H]4C[C@@H]4c4ccccc4)C3)cc2)C[C@H]1C(=O)N[C@H]1C[C@@H]1c1ccccc1 [Compound 11, 12-((3S,4S)-1-(4-((3S,4S)-3,4-Bis(((1S,2R)-2-phenyl-cyclopropyl)carbamoyl)pyrrolidine-1-carbonyl)benzoyl)-4-(((1S,2R)-2-phenylcyclopropyl)carbamoyl)pyrrolidine-3-carboxamido)-dodecanoic acid]	110	280	100	3.4	–	–	–
NC(=O)CCCCCCCCCCCNC(=O)[C@@H]1CN(C(=O)c2ccc(C(=O)N3C[C@@H](C(=O)N[C@H]4C[C@@H]4c4ccccc4)[C@H](C(=O)N[C@H]4C[C@@H]4c4ccccc4)C3)cc2)C[C@H]1C(=O)N[C@H]1C[C@@H]1c1ccccc1 [Compound 12, (3S,4S)—N^3-(12-Amino-12-oxododecyl)-1-(4-((3S,4S)-3,4-bis(((1S,2R)-2-phenylcyclopropyl)-carbamoyl)-pyrrolidine-1-carbonyl)benzoyl)-N^4-((1S,2R)-2-phenyl-cyclopropyl)pyrrolidine-3,4-dicarboxamide]	120	60	110	0.9	–	–	–
CNC(=O)CCCCCCCCCCCNC(=O)[C@@H]1CN(C(=O)c2ccc(C(=O)N3C[C@@H](C(=O)N[C@H]4C[C@@H]4c4ccccc4)[C@H](C(=O)N[C@H]4C[C@@H]4c4ccccc4)C3)cc2)C[C@H]1C(=O)N[C@H]1C[C@@H]1c1ccccc1 [Compound 13, (3S,4S)-1-(4-((3S,4S)-3,4-Bis(((1S,2R)-2-phenylcyclo-propyl)carbamoyl)pyrrolidine-1-carbonyl)-benzoyl)-N^3-(12-(methylamino)-12-oxododecyl)-N^4-((1S,2R)-2-phenyl-cyclopropyl)pyrrolidine-3,4-dicarboxamide]	150	60	120	1	–	–	–
CC(C)(C)OC(=O)CNC(=O)CCCCCCCCCCCNC(=O)[C@@H]1CN(C(=O)c2ccc(C(=O)N3C[C@@H](C(=O)N[C@H]4C[C@@H]4c4ccccc4)[C@H](C(=O)N[C@H]4C[C@@H]4c4ccccc4)C3)cc2)C[C@H]1C(=O)N[C@H]1C[C@@H]1c1ccccc1 [Compound 14, tert-Butyl (12-((3S,4S)-1-(4-((3S,4S)-3,4-bis(((1S,2R)-2-phenylcyclopropyl)carbamoyl)-pyrrolidine-1-carbonyl)-benzoyl)-4-(((1S,2R)-2-phenylcyclopropyl)carbamoyl)pyrrolidine-3-carboxamido)dodecanoyl)glycinate]	70	25	100	20	–	–	–
O=C(O)CNC(=O)CCCCCCCCCCCNC(=O)[C@@H]1CN(C(=O)c2ccc(C(=O)N3C[C@@H](C(=O)N[C@H]4C[C@@H]4c4ccccc4)[C@H](C(=O)N[C@H]4C[C@@H]4c4ccccc4)C3)cc2)C[C@H]1C(=O)N[C@H]1C[C@@H]1c1ccccc1 [Compound 15, (12-((3S,4S)-1-(4-((3S,4S)-3,4-Bis(((1S,2R)-2-phenylcyclopropyl)carbamoyl)pyrrolidine-1-carbonyl)benzoyl)-4-(((1S,2R)-2-phenylcyclopropyl)carbamoyl)pyrrolidine-3-carboxamido)-dodecanoyl)glycine]	30	1200	110	200	–	–	–
NCCCCCCCCCCCCNC(=O)[C@@H]1CN(C(=O)c2ccc(C(=O)N3C[C@@H](C(=O)N[C@H]4C[C@@H]4c4ccccc4)[C@H](C(=O)N[C@H]4C[C@@H]4c4ccccc4)C3)cc2)C[C@H]1C(=O)N[C@H]1C[C@@H]1c1ccccc1 [Compound 16, (3S,4S)—N^3-(12-Aminododecyl)-1-(4-((3S,4S)-3,4-bis-(((1S,2R)-2-phenylcyclopropyl)carbamoyl)-pyrrolidine-1-carbonyl)benzoyl)-N^4-((1S,2R)-2-phenylcyclopropyl)-pyrrolidine-3,4-dicarboxamide]	130	10	140	0.8	–	–	–
CC(C)(C)OC(=O)CCOCCOCCOCCNC(=O)[C@@H]1CN(C(=O)c2ccc(C(=O)N3C[C@@H](C(=O)N[C@H]4C[C@@H]4c4ccccc4)[C@H](C(=O)N[C@H]4C[C@@H]4c4ccccc4)C3)cc2)C[C@H]1C(=O)N[C@H]1C[C@@H]1c1ccccc1 [Compound 28, tert-Butyl 1-((3S,4S)-1-(4-((3S,4S)-3,4-bis(((1S,2R)-2-phenylcyclopropyl)carbamoyl)pyrrolidine-1-carbonyl)-benzoyl)-4-(((1S,2R)-2-phenylcyclopropyl)carbamoyl)-pyrrolidin-3-yl)-1-oxo-5,8,11-trioxa-2-azatetradecan-14-oate]	–	–	–	–	–	–	3.1
COC(=O)CCOCCOCCOCCNC(=O)[C@@H]1CN(C(=O)c2ccc(C(=O)N3C[C@@H](C(=O)N[C@H]4C[C@@H]4c4ccccc4)[C@H](C(=O)N[C@H]4C[C@@H]4c4ccccc4)C3)cc2)C[C@H]1C(=O)N[C@H]1C[C@@H]1c1ccccc1 [Compound 29, Methyl 1-((3S,4S)-1-(4-((3S,4S)-3,4-bis(((1S,2R)-2-phenylcyclopropyl)carbamoyl)pyrrolidine-1-carbonyl)benzoyl)-4-(((1S,2R)-2-phenylcyclopropyl)carbamoyl)-pyrrolidin-3-yl)-1-oxo-5,8,11-trioxa-2-azatetradecan-14-oate]	–	–	110	–	–	–	40

Source: US20250367166A1, “NEXT GENERATION DIPROVOCIMS THAT ACTIVATE THE INNATE AND ADAPTIVE IMMUNE RESPONSE” (The Scripps Research Institute, priority 2022, published 2025)
